Measured values published in PMC11459619, “Evaluating the amoeba thioredoxin reductase selenoprotein as potential drug target for treatment of Acanthamoeba infections” (International Journal for Parasitology: Drugs and Drug …, 2024).
Read-outs that look alike come from different tables or passages of the source.

Tests used:
[1] = target: T1, AcTrxR-L (Acanthamoeba castellanii, UniProt L8HG59); assay: DTNB reduction at 412 nm (250 μM NADPH, 1 mM DTNB, TE buffer) after preincubation of 50 nM AcTrxR-L with inhibitor, 250 μM NADPH and 0.01 mg/ml BSA for 30 min (10 min in results), diluted 5-fold and desalted to remove free inhibitor.; format: biochemical; conditions: n = 2
T1 construct: gene ACA1_153040; recombinant selenoprotein from E. coli C321.ΔA (pABC2a, UAG as Sec codon, SECIS element); N-terminal His-SUMO removed with ULP1; homodimer with one FAD per subunit
T1 sequence (L8HG59 1-526): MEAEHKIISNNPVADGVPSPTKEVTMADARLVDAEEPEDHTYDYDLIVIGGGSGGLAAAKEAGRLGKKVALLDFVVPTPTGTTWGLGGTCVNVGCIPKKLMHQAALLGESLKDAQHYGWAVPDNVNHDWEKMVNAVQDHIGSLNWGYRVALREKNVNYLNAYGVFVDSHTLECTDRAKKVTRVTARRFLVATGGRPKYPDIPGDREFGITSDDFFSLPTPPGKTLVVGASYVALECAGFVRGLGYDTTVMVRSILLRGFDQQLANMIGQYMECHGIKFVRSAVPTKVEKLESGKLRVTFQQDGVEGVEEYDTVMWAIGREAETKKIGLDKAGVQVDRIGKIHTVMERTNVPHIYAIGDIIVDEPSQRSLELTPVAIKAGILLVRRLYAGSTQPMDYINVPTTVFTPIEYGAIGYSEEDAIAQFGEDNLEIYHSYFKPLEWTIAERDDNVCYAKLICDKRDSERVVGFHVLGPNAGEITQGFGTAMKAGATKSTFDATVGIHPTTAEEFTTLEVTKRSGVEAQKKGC
Description: (§1) Then, the reaction was diluted 5-fold and 200 μl was desalted using Zeba™ Spin Desalting Columns and Plates, 40K MWCO (Thermo Scientific, 87767), whereupon 100 μl of the reactions, either desalted or not desalted, were transferred to each well of a 96 well plate. Subsequently, 250 μM NADPH and 1 mM DTNB were added to each well. The TNB^− formation at A412 nm was followed by a spectrophotometer and experiments were carried out in duplicates. The IC50 values were determined based on the nonlinear regression (curve fit), dose-response-inhibitor equation, log (inhibitor) vs. normalized response (variable slope) using GraphPad Prism.

[2] = target: T1, AcTrxR-L; assay: DTNB reduction at 412 nm (250 μM NADPH, 1 mM DTNB, TE buffer) after preincubation of 50 nM AcTrxR-L with inhibitor, 250 μM NADPH and 0.01 mg/ml BSA for 30 min (10 min in results), diluted 5-fold, without desalting.; format: biochemical; conditions: n = 2; read-out: IC50 (μM), Not desalted
Description: as §1

[3] = tested on: Schistosoma mansoni; parameters: method as in Kuntz et al., 2007; conditions: treatment of infected mice; ref Kuntz et al., 2007; cited from earlier work
[4] = tested on: AcTrxR-L; assay: Inhibition of AcTrxR-L, direct DTNB reduction assay; format: biochemical, Acanthamoeba castellanii; conditions: for IC50: DTNB reduction; for Reversibility of AcTrxR-L inhibition after desalting: removal of compound from solution by desalting
Description: as §1, with “The reaction consisted of incubating 50 nM AcTrxR-L with 0.5–10 μM of auranofin, TRi-1 or TRi- 2, or 1% v/v DMSO, 250 μM NADPH and 0.01 mg/ml BSA in TE buffer for 30 min ([Fata et al., 2022]). Then,” for “Then,”

[5] = tested on: Acanthamoeba strain Neff trophozoites; assay: In vitro amoebicide assay, trypan blue direct counting; format: cell-based, Acanthamoeba castellanii
Description: Acanthamoeba castellanii strain Neff (ATCC® 30010™) genotype T4 was used for all experiments. The amoebae were grown in peptone yeast extract-glucose medium (PYG) in 75 cm^2 tissue culture flasks at 25 °C with weekly medium changes as described previously ([Köhsler et al., 2022]).
The amoebicidal activity was assessed by direct counting, using trypan blue ([Martín-Pérez et al., 2021]) and assayed in sterile 96-well microplates. Diverse drug concentrations (0–20 μM) were prepared via serial dilutions in DMSO, keeping total DMSO at 5% in the control well and in the drug solution wells ranging 5–3%. Amoebae from log-phase cultures (5 × 10^4 trophozoites/well) were inoculated into the microplates and the trophozoites were resuspended in PYG medium. Drug assays contained 100 μL of trophozoites solution, 90 μL of PYG media and 10 μL of the drug solution per well. The growth control (positive control) included 100 μL of trophozoites solution, 90 μL of PYG medium and 10 μL of DMSO. Each drug concentration and control were investigated in triplicates and each experiment was repeated in two independent setups. The plates were incubated at 25 °C during 4, 24, 48 and 72 h. Samples were placed in a Bürker-Türk counting chamber. The IC50 was calculated using GraphPad Prism, as explained previously.

[6] = tested on: human corneal epithelial cells (HCECs); assay: Cytotoxicity test on human corneal epithelial cells (CellTiter 96 AQueous One); format: cell-based; conditions: HCEC; for TD50 24 h: 24 h of treatment; for TD50 48 h: 48 h of treatment; for TD50 72 h: 72 h of treatment
Description: Cytotoxicity of the compounds towards human corneal epithelial cells (HCECs) (Innoprot, ref. P10871) was determined ([Loufouma Mbouaka et al., 2023]) in 96-well microplates. The HCECs (1 × 10^4 cells/well) were grown in 100 μL of corneal epithelial cell medium (CEpiCM) (Innoprot, ref. P60131) supplemented with 1% of corneal epithelial cell growth supplement (CEpiCGS), 2% of fetal bovine serum (FBS) and 1% antibiotic mix: 10,000 U penicillin, 10 mg streptomycin and 25 μg amphotericin B per milliliter. After overnight incubation, cytotoxicity was evaluated adding 20 μL of CellTiter 96® AQueous One Solution Reagent (Promega, Madison, WI, USA). After 1 h of incubation at 37 °C, the absorbance at 490 nm was read using a spectrophotometer (Tecan, Spark 10M, Switzerland).
The TD50 values were calculated using the same method as the IC50 values with GraphPad Prism. Moreover, the therapeutic index was determined as the ratio of TD50 to IC50 ([Muller and Milton, 2012]).

[7] = tested on: AcTrxR-S; parameters: method as in Leitsch et al., 2021; conditions: ref Leitsch et al., 2021; read-out: IC50 enzymatic activity of AcTrxR-S; cited from earlier work
[8] = tested on: different strains of Acanthamoeba; conditions: ref Feng et al. (2020); read-out: IC50 against Acanthamoeba trophozoites; cited from earlier work
[9] = tested on: AcTrxR-L; assay: Direct DTNB reduction assay; format: biochemical, Acanthamoeba castellanii
Description: Unless stated otherwise, all enzyme assays for AcTrxR-L were based upon well-established selenoprotein TrxR assays, as outlined earlier ([Arnér, 2018]). Kinetic parameters of AcTrxR-L were determined with different biochemical assays in triplicates in cuvettes as previously described ([Fata et al., 2022]). First, the specific activity of AcTrxR-L was calculated from its NADPH-dependent DTNB reduction. The reaction mixture contained 10 nM AcTrxR-L, 250 μM NADPH, and 2.5 mM DTNB in TE buffer (50 mM Tris and 2 mM EDTA, pH 7.5), and the reduction of DTNB was monitored by measuring the formation of the TNB^− anion at A412 nm on a spectrophotometer. Each DTNB is reduced into 2 molecules of TNB^− with extinction coefficient of 13,600 M^−1cm^−1 at 412 nm and the specific activity of the enzyme was calculated as Unit per mg (U/mg), with 1 U (μmol/min) defined as conversion of 1 μmol of DTNB substrate per minute.
Apparent Michaelis-Menten parameters were in all cases calculated based on the nonlinear fit of the velocity vs substrate concentration curves to the Michaelis-Menten equation by using GraphPad Prism.

[10] = tested on: HCEC; parameters: method as in Martín-Pérez et al., 2019; conditions: ref Martín-Pérez et al., 2019; read-out: IC50 against HCEC; cited from earlier work
[11] = substrate: O=C(O)c1cc(SSc2ccc([N+](=O)[O-])c(C(=O)O)c2)ccc1[N+](=O)[O-]; assay: purified protein, by the assay type; conditions: pH 7.5
[12] = after removal of the inhibitors by desalting, read-out: IC50 Desalted
[13] = in presence of the inhibitors, 50 nM AcTrxR-L, read-out: IC50 Not desalted
[14] = 48 h of treatment, read-out: IC50 48 h
[15] = 72 h of treatment, read-out: IC50 72 h

What does the source list for `CC[PH](CC)(CC)[Au][S][C@@H]1O[C@H](COC(C)=O)[C@@H](OC(C)=O)[C@H](OC(C)=O)[C@H]1OC(C)=O` [Auranofin, auranofin (Ridaura), gold-based compound]?
IC50 [1]: 0.32 ± 0.55 µM; IC50 [2]: 0.32 ± 0.39 µM

For `CC(=O)OC[C@H]1O[C@@H]([S-])[C@H](OC(C)=O)[C@@H](OC(C)=O)[C@@H]1OC(C)=O.CCP(CC)CC.[Au+]` [Auranofin, auranofin], which “Reduction of worm burden” value [3] is on record?
Its value is 60%.

And the IC50 [4, 12]?
The IC50 was 320 ± 550 nM.

And the IC50 [4, 13]?
The IC50 was 320 ± 390 nM.

And the “Reversibility of AcTrxR-L inhibition after desalting” value [4]?
Its value is “irreversibly inhibit the enzyme”.

And the IC50 [5, 14]?
Its IC50 is 21100 ± 11000 nM.

What about the IC50 [5, 15] of the same molecule?
Its IC50 is 5640 ± 1350 nM.

What about the “TD50 24 h” value [6] of the same molecule?
Its value is 2.79 ± 0.076 µM.

And the “TD50 48 h” value [6]?
Its value is 1.18 ± 0.103 µM.

What about the “TD50 72 h” value [6] of the same molecule?
Its value is 0.97 ± 0.045 µM.

What about the IC50 [7] of the same molecule?
The IC50 was 216 nM.

What about the IC50 [8] of the same molecule?
The IC50 was 5790 nM.

With `O=C(O)c1cc(SSc2ccc([N+](=O)[O-])c(C(=O)O)c2)ccc1[N+](=O)[O-]` [DTNB] as the molecule, how does the Km [9] read?
Its Km is 384 ± 63.7 µM.

What about the Vmax [9] of the same molecule?
Its Vmax is 238.1 ± 19.01 µmol/min/mg.

What about the kcat [9] of the same molecule?
Its kcat is 79.37 s⁻¹.

With `COc1ccc([N+](=O)[O-])c(S(=O)(=O)c2ccc(Cl)cc2)n1` [TRi-1, thioredoxin reductase inhibitor -1] as the molecule, how does the IC50 [1] read?
The IC50 was 0.37 ± 0.11 µM.

And the IC50 [2]?
Its IC50 is 0.36 ± 0.07 µM.

With `COc1ccc([N+](=O)[O-])c(S(=O)(=O)c2ccc(Cl)cc2)n1` [TRi-1] as the molecule, how does the IC50 [4, 12] read?
The IC50 was 370 ± 110 nM.

And the IC50 [4, 13]?
Its IC50 is 360 ± 70 nM.

What about the “Reversibility of AcTrxR-L inhibition after desalting” value [4] of the same molecule?
The value was “irreversibly inhibit the enzyme”.

And the IC50 ([5]; 24 h of treatment, read-out: IC50 24 h)?
The IC50 was 17700 ± 1640 nM.

What about the IC50 [5, 14] of the same molecule?
Its IC50 is 7650 ± 1710 nM.

And the IC50 [5, 15]?
Its IC50 is 4290 ± 862 nM.

What about the “TD50 24 h” value [6] of the same molecule?
Its value is 8.84 ± 0.044 µM.

What about the “TD50 48 h” value [6] of the same molecule?
Its value is 8.40 ± 0.168 µM.

What about the “TD50 72 h” value [6] of the same molecule?
The value was 8.40 ± 0.003 µM.

For `[H]/N=C(\N/C(=N/[H])NCCCCCCNC(=N)NC(=N)Nc1ccc(Cl)cc1)Nc1ccc(Cl)cc1` [chlorhexidine], which IC50 [10] is on record?
The IC50 was 1580 nM.

What does the source list for “thioredoxin reductase inhibitor -2 [TRi-2]”?
IC50 [1]: > 10 µM; IC50 [2]: > 10 µM

B1: AcTrxR-L (Acanthamoeba castellanii str. Neff) (protein)
chain: MEAEHKIISNNPVADGVPSPTKEVTMADARLVDAEEPEDHTYDYDLIVIGGGSGGLAAAKEAGRLGKKVALLDFVVPTPTGTTWGLGGTCVNVGCIPKKLMHQAALLGESLKDAQHYGWAVPDNVNHDWEKMVNAVQDHIGSLNWGYRVALREKNVNYLNAYGVFVDSHTLECTDRAKKVTRVTARRFLVATGGRPKYPDIPGDREFGITSDDFFSLPTPPGKTLVVGASYVALECAGFVRGLGYDTTVMVRSILLRGFDQQLANMIGQYMECHGIKFVRSAVPTKVEKLESGKLRVTFQQDGVEGVEEYDTVMWAIGREAETKKIGLDKAGVQVDRIGKIHTVMERTNVPHIYAIGDIIVDEPSQRSLELTPVAIKAGILLVRRLYAGSTQPMDYINVPTTVFTPIEYGAIGYSEEDAIAQFGEDNLEIYHSYFKPLEWTIAERDDNVCYAKLICDKRDSERVVGFHVLGPNAGEITQGFGTAMKAGATKSTFDATVGIHPTTAEEFTTLEVTKRSGVEAQKKGC
Which Km [11] does the source give for B1 here?
Its Km is 384.1 ± 63.74 µM.

What about the Vmax [11] of the same molecule?
The Vmax was 238 µmol/min/mg.

What about the kcat [11] of the same molecule?
Its kcat is 79.4 s⁻¹.

And the kcat/Km [11]?
Its kcat/Km is 200000 M⁻¹ s⁻¹.
